Measurements reported in US20090216187A1, “Method of Treatment of Vascular Diseases” (priority 2008, published 2009).
Read-outs that look alike come from different tables or passages of the source.

Experiments:
[1] = subsequent oral administration of perchlorate after Rhenium-188 incorporation; cited from earlier work
[2] = complete accidental incorporation of a balloon filling of about 3 ml; cited from earlier work
[3] = cited from earlier work
[4] = renal elimination after incorporation (animal experimental data); assay type: in vivo
Description: To date one accidental Rhenium-188 incorporation caused by balloon rupture has been reported. The measured total body dose of the treated patient was 113 mGy (image-based analysis) and 88 mGy (biological analysis), respectively. Thus, the measured radiation exposures were within the theoretical calculated ranges. [Paeng J. C., Lee D. S., Kang W. J., Yang H. M., Chung J. K., Jeong J. M., Chae I. H., Lee M. M., Lee M. C. “Dosimetry in leakage of (188)Re-DTPA during intracoronary balloon brachytherapy” Eur. J. Nucl. Med. Mol. Imaging. 2003; 30(9): 1263-1265]. […] Therefore, Rhenium-188 will remain in the body for about 2 days after incorporation. In the body Rhenium-188 is mainly absorbed by the thyroid (0.0167 mGy/MBq) and the stomach (0.013 mGy/MBq) [Knapp F. F., Jr., Guhlke S., Beets A. L., Lin W. Y., Stabin M., Amols H., Weinberger J. “Endovascular beta irradiation for prevention of restenosis using solution radioisotopes: pharmacologic and dosimetric properties of rhenium-188 compounds.” Cardiovasc. Radiat. Med. 1999; 1(1): 86-97; Lin W. Y., Tsai S. C., Hsieh B. T. Lee T. W., Ting G., Wang S. J “Evaluation of three rhenium-188 candidates for intravascular radiation therapy with liquid-filled balloons to prevent restenosis” J. Nucl. Cardiol. 2000; 7(1): 37-42]. […]

[5] = renal elimination after incorporation; animal experimental data; cited from earlier work
[6] = patient after balloon rupture, cited from earlier work

[O-][Cl+3]([O-])([O-])O [perchlorate]
whole-body radiation reduced to [1]: 38%

Rhenium-188-DPTA
theoretical calculated total body dose [2]: approximately 63 mGy

[188Re] [Rhenium-188]
absorbed dose ([3]; stomach): 0.013 mGy/MBq
absorbed dose ([3]; thyroid): 0.0167 mGy/MBq
time remaining in the body after incorporation [4]: about 2 days
elimination half-life [5]: about 7 h
measured total body dose ([6]; biological analysis): 88 mGy
measured total body dose ([6]; image-based analysis): 113 mGy
